Biological target: NACHT, LRR and PYD domains-containing protein 3 (Homo sapiens, UniProt Q96P20)
Test: Evaluation of NLRP3 Inflammasome Inhibitory Activity Assay
Procedure: The NLRP3 inflammasome inhibitory activity of test compounds were evaluated CM the basis of the inhibitory activity of the IL-1β, production in THP1-Null cells (Product Number: thp-null, InvivoGen). […] A solution containing a test compound (20 μL/well) was added to test compound-setting wells. […] The supernatant of the culture was cryonically stored (set at −20° C.) until measurement of IL-1β.

NACHT, LRR and PYD domains-containing protein 3, sequence (Q96P20 whole entry, the tested form may be a part): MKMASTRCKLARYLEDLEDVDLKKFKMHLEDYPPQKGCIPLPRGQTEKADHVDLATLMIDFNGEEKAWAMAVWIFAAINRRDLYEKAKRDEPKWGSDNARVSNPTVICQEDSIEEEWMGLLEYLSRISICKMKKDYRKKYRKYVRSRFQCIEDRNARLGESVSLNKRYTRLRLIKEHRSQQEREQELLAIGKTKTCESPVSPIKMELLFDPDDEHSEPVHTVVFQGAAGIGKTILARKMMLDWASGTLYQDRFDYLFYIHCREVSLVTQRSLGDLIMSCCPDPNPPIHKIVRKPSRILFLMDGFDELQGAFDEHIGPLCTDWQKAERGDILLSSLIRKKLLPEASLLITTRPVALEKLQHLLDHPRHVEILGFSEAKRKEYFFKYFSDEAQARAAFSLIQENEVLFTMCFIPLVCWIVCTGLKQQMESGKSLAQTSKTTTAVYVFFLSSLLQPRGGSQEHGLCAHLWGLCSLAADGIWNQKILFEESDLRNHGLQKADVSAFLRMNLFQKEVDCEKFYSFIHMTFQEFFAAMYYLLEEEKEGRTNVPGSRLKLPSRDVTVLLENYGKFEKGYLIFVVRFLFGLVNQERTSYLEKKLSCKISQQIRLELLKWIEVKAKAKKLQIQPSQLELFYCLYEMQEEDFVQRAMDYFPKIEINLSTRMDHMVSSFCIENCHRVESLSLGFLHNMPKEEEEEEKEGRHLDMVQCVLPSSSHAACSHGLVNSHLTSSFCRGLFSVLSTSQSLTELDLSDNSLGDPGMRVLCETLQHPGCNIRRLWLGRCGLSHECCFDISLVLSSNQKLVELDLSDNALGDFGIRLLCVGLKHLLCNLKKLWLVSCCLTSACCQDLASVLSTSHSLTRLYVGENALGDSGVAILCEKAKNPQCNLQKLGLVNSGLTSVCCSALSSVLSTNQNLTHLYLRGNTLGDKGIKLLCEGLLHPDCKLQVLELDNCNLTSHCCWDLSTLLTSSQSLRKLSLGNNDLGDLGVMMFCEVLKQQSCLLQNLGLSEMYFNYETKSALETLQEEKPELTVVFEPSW

SMILES	IC50 [nM]
Cc1ccc(C(F)(F)F)cc1Nc1nc(C(=O)NS(=O)(=O)N2CCN(c3ccccc3)CC2)co1 [US20230399319, Example 2-274]	180
Cc1ccc(C(F)(F)F)cc1Nc1nc(C(=O)NS(=O)(=O)N2CCC(C#N)CC2)co1 [US20230399319, Example 2-109]	38
Cc1cn(C2CCC2)nc1Nc1nc(C(=O)NS(=O)(=O)N2CCCOCC2)co1 [US20230399319, Example 2-188]	790
CC(C)c1ccc(C(F)(F)F)cc1Nc1ncc(C(=O)NS(=O)(=O)N2CCCOCC2)o1 [US20230399319, Example 2-135]	44
Cc1ccc(C(F)(F)F)cc1Nc1nc(C(=O)NS(=O)(=O)N2CCCC(C#N)(C(=O)N(C)C)CC2)co1 (stereo not drawn) [US20230399319, Example 2-260]	41
CC(C)c1nn(C(C)C)cc1Nc1nc(C(=O)NS(=O)(=O)N2CCCC(C#N)CC2)co1 (stereo not drawn) [US20230399319, Example 2-191]	350
Cc1ccc(C(F)(F)F)cc1Nc1nc(C(=O)NS(=O)(=O)N(C)CCc2ccccn2)co1 [US20230399319, Example 2-287]	64
COCC(C)CN(C)S(=O)(=O)NC(=O)c1coc(Nc2cc(C(F)(F)F)ccc2C)n1 (stereo not drawn) [US20230399319, Example 2-296]	81
Cc1ccc(C(F)(F)F)cc1Nc1nc(C(=O)NS(=O)(=O)N2CCCCCC2)co1 [US20230399319, Example 2-145]	42
COC(=O)CC1COCCN1S(=O)(=O)NC(=O)c1coc(Nc2c3c(c(Cl)c4c2CCC4)CCC3)n1 (racemic) [US20230399319, Example 73]	130
CC(C)c1ccc(C(F)(F)F)cc1Nc1nc(C(=O)NS(=O)(=O)N2CCCC2CO)co1 (stereo not drawn) [US20230399319, Example 2-124]	47
CCCS(=O)(=O)C1CCCN(S(=O)(=O)NC(=O)c2coc(Nc3cc(C)ccc3C(C)C)n2)CC1 (stereo not drawn) [US20230399319, Example 2-311]	18
Cc1ccc(C(F)(F)F)cc1Nc1nc(C(=O)NS(=O)(=O)N2CCCC2C)co1 (stereo not drawn) [US20230399319, Example 2-174]	55
Cc1ccc(C(F)(F)F)cc1Nc1nc(C(=O)NS(=O)(=O)N(C)Cc2cccnc2)co1 [US20230399319, Example 2-134]	79
Cc1cn(C(C)C)nc1Nc1nc(C(=O)NS(=O)(=O)N2CCOCC(F)(F)C2)co1 [US20230399319, Example 2-212]	280
Cc1ccc(C(F)(F)F)cc1Nc1nc(C(=O)NS(=O)(=O)N(Cc2ccccc2)C(C)C)co1 [US20230399319, Example 2-207]	180
CCOCC1CCN(S(=O)(=O)NC(=O)c2coc(Nc3cc(C(C)C)c(F)cc3C)n2)CCO1 (stereo not drawn) [US20230399319, Example 2-337]	13
Cc1ccc(C(F)(F)F)cc1Nc1nc(C(=O)NS(=O)(=O)N2CCCCC2C(F)F)co1 (stereo not drawn) [US20230399319, Example 2-187]	110
CC(C)c1cc(Nc2nc(C(=O)NS(=O)(=O)N3CCCOCC3)co2)n(C(C)C)n1 [US20230399319, Example 2-202]	2200
Cc1cc(Nc2nc(C(=O)NS(=O)(=O)N3CCOC(COCC(C)(C)O)CC3)co2)c(C)cc1F (stereo not drawn) [US20230399319, Example 2-353]	16
Cc1ccc(C(F)(F)F)cc1Nc1nc(C(=O)NS(=O)(=O)N2CCCC(S(=O)(=O)C(C)C)CC2)co1 (stereo not drawn) [US20230399319, Example 2-317]	27

SMILES	IC50 [nM]
Cc1ccc(C(F)(F)F)cc1Nc1nc(C(=O)NS(=O)(=O)N(C)CCS(C)(=O)=O)co1 [US20230399319, Example 2-280]	420
Cc1ccc(C)c(Nc2nc(C(=O)NS(=O)(=O)N3CCCC(C#N)CC3)co2)c1 (stereo not drawn) [US20230399319, Example 2-300]	190
COC[C@@H]1CCCN1S(=O)(=O)NC(=O)c1coc(Nc2cc(C)ccc2C(C)C)n1 [US20230399319, Example 2-322]	270
Cc1ccc(C(F)(F)F)cc1Nc1nc(C(=O)NS(=O)(=O)N(C)CC2CCCC2)co1 [US20230399319, Example 2-208]	89
CCOC[C@@H]1CCCN1S(=O)(=O)NC(=O)c1coc(Nc2cc(C)ccc2C)n1 [US20230399319, Example 2-314]	210
CCCS(=O)(=O)C1CCCN(S(=O)(=O)NC(=O)c2coc(Nc3nn(C(C)C)cc3C)n2)CC1 (stereo not drawn) [US20230399319, Example 2-302]	36
CC(C)c1ccc(C(F)(F)F)cc1Nc1nc(C(=O)NS(=O)(=O)N2CCOCC2)co1 [US20230399319, Example 2-026]	< 30
COC1COCCN(S(=O)(=O)NC(=O)c2coc(Nc3cc(C(C)C)c(F)cc3C)n2)C1 (stereo not drawn) [US20230399319, Example 2-343]	16
Cc1ccc(C(F)(F)F)cc1Nc1nc(C(=O)NS(=O)(=O)N2CCC(C)C2)co1 (stereo not drawn) [US20230399319, Example 2-019]	70
Cc1ccc(C(F)(F)F)cc1Nc1nc(C(=O)NS(=O)(=O)N(C)C2CC2)co1 [US20230399319, Example 2-165]	100
COCCN(CCOC)S(=O)(=O)NC(=O)c1coc(Nc2cc(C(F)(F)F)ccc2C)n1 [US20230399319, Example 2-164]	140
CC(C)c1ccc(C(F)(F)F)cc1Nc1nc(C(=O)NS(=O)(=O)N(C)C)co1 [US20230399319, Example 2-025]	< 30
Cc1ccc(C)c(Nc2nc(C(=O)NS(=O)(=O)N3CCCOCC3)co2)c1C [US20230399319, Example 2-114]	340
COC[C@@H]1CCCN1S(=O)(=O)NC(=O)c1coc(Nc2cc(C(F)(F)F)ccc2C)n1 [US20230399319, Example 2-038]	< 30
Cc1cn(CC(F)(F)F)nc1Nc1nc(C(=O)NS(=O)(=O)N2CCCOCC2)co1 [US20230399319, Example 2-152]	6100
Cc1cc(Cl)c(C(C)C)cc1Nc1nc(C(=O)NS(=O)(=O)N2CCOCC2)co1 [US20230399319, Example 2-028]	< 30
CC(C)c1ccc(C(F)(F)F)cc1Nc1nc(C(=O)NS(=O)(=O)N2CCCN(C)CC2)co1 [US20230399319, Example 2-123]	210
Cc1cc(F)c(C(C)C)cc1Nc1nc(C(=O)NS(=O)(=O)N2CCCOCC2)co1 [US20230399319, Example 2-336]	10
Cc1ccc(C(F)(F)F)cc1Nc1nc(C(=O)NS(=O)(=O)N2CCC[C@@H]2C(=O)N(C)C)co1 [US20230399319, Example 2-080]	930
Cc1cc(F)c(C(C)C)cc1Nc1nc(C(=O)NS(=O)(=O)N2CCOCC(O)C2)co1 (stereo not drawn) [US20230399319, Example 2-350]	15
Cc1cc(Nc2nc(C(=O)NS(=O)(=O)N3CCCOCC3)co2)c(C)cc1F [US20230399319, Example 2-339]	30

SMILES	IC50 [nM]
CCC(C)n1cc(C)c(Nc2nc(C(=O)NS(=O)(=O)N3CCCOCC3)co2)n1 (stereo not drawn) [US20230399319, Example 2-200]	1100
Cc1ccc(C(F)(F)F)cc1Nc1nc(C(=O)NS(=O)(=O)N2CCC(S(C)(=O)=O)CC2)co1 [US20230399319, Example 2-018]	50
Cc1ccc(C(F)(F)F)cc1Nc1nc(C(=O)NS(=O)(=O)N2CCOCC(n3cccn3)C2)co1 (stereo not drawn) [US20230399319, Example 2-304]	59
Cc1ccc(C(C)(C)C)cc1Nc1nc(C(=O)NS(=O)(=O)N(C)CCN(C)C)co1 [US20230399319, Example 2-132]	1900
CCCOCC1CCN(S(=O)(=O)NC(=O)c2coc(Nc3cc(C)ccc3C)n2)CCO1 (stereo not drawn) [US20230399319, Example 2-323]	35
CCCCS(=O)(=O)N1CCN(S(=O)(=O)NC(=O)c2coc(Nc3cc(C(F)(F)F)ccc3C)n2)CC1 [US20230399319, Example 2-247]	22
Cc1ccc(C(F)(F)F)cc1Nc1nc(C(=O)NS(=O)(=O)N2CCC(F)(F)CC2)co1 [US20230399319, Example 2-023]	130
Cc1ccc(C(F)(F)F)cc1Nc1nc(C(=O)NS(=O)(=O)N(C(C)C)C(C)C)co1 [US20230399319, Example 2-051]	44
Cc1c(Nc2nc(C(=O)NS(=O)(=O)N(C)C)co2)cc(C(F)(F)F)cc1C(F)(F)F [US20230399319, Example 2-041]	340
Cc1ccc(C(F)(F)F)cc1Nc1nc(C(=O)NS(=O)(=O)N2CCC2C)co1 (stereo not drawn) [US20230399319, Example 2-078]	100
Cc1noc(C2(C)CCN(S(=O)(=O)NC(=O)c3coc(Nc4cc(C(F)(F)F)ccc4C)n3)CC2)n1 [US20230399319, Example 2-285]	170
Cc1ccc(C(F)(F)F)cc1Nc1nc(C(=O)NS(=O)(=O)N2CCCC(F)(F)CC2)co1 [US20230399319, Example 2-234]	50
CC1CCN(S(=O)(=O)NC(=O)c2coc(Nc3c4c(c(F)c5c3CCC5)CCC4)n2)C1 (stereo not drawn) [US20230399319, Example 2-008]	180
Cc1ccc(C(F)(F)F)cc1Nc1nc(C(=O)NS(=O)(=O)N2CCC(C)(C)C2)co1 [US20230399319, Example 2-020]	100
Cc1ccc(C(F)(F)F)cc1Nc1nc(C(=O)NS(=O)(=O)N2CCN(S(=O)(=O)C(C)C)CC2)co1 [US20230399319, Example 2-267]	88
Cc1ccc(C(F)(F)F)cc1Nc1nc(C(=O)NS(=O)(=O)N2CCOCC(F)(F)C2)co1 [US20230399319, Example 2-190]	17
CCCS(=O)(=O)C1CCCN(S(=O)(=O)NC(=O)c2coc(Nc3nc(C(F)(F)F)ccc3C(C)C)n2)CC1 (stereo not drawn) [US20230399319, Example 2-315]	85
Cc1cc(Nc2nc(C(=O)NS(=O)(=O)N3CCOC(C(C)(C)O)CC3)co2)c(C)cc1F (stereo not drawn) [US20230399319, Example 3-002]	49
Cc1cc(F)c(C(C)C)cc1Nc1nc(C(=O)NS(=O)(=O)N2CCOC(CO)CC2)co1 (stereo not drawn) [US20230399319, Example 2-348]	28
COCCC1(C#N)CCCN(S(=O)(=O)NC(=O)c2coc(Nc3cc(C(F)(F)F)ccc3C)n2)CC1 (stereo not drawn) [US20230399319, Example 2-250]	30
Cc1cn(C2CCCC2)nc1Nc1nc(C(=O)NS(=O)(=O)N2CCCOCC2)co1 [US20230399319, Example 2-153]	2300

— BindingDB's records for patent US20230399319 (Japan Tobacco, 2023)
